The source of these data is patent publication US11166972B2, “Compositions comprising nicotinamide riboside and a urolithin” (Amazentis SA, priority 2015, dated 2021).

The subject of this test is mitochondrial respiratory subunits proteins in C2C12 myoblasts. Nature of the test: Western blot of mitochondrial respiratory subunits proteins in C2C12 myoblasts (Example 6). In kind it is cell-based. Particulars: 48 hours. The method, then:
C2C12 myoblasts were cultured in Dulbecco's modified Eagle's medium (DMEM) including 4.5 g/L glucose, 10% fetal calf serum, and 50 μg/mL gentamicin. Urolithin A (UA) was dissolved in DMSO in a stock solution of 50 mM. Nicotinamide riboside (NR) in the form of the triflate salt was dissolved in double-distilled water in a stock solution of 1 M. One hundred thousand cells were plated at time 0 hours in 6-wells plates. A total of 3 wells was used per condition (n=3 per group). Cells were treated in a volume of 2 ml for a period of 48 hours at final concentrations of (a) DMSO 0.1%, (b) 25 μM UA, (c) 0.1 mM NR, (d) 1 mM NR, (e) 25 μM UA+0.1 mM NR and (f) 25 μM UA+1 mM NR. At the end of the treatment, cells were lysed with cell lysis buffer (#9803, Cell signalling) containing protease (cOmplete™, Roche) and phosphatase inhibitor (PhosSTOP™, Roche) and applied to Invitrogen NuPage® Novex® Gel System (Bis-Tris Protein Gels −4-12%, Thermo fisher Scientific). Protein levels were examined for mitochondrial respiratory subunits, including mitochondrially encoded cytochrome c oxidase I (MTCO1), succinate dehydrogenase complex flavoprotein subunit A (SDHA) and B (SDHB), ubiquinol-cytochrome c reductase core protein II (UQCRC2) and ATP synthase, H+ transporting, mitochondrial F1 complex, alpha subunit 1 (ATP5A). The housekeeping protein tubulin-α was measured as a loading control. Detection of the proteins was performed using an Azure c300 (Azure biosystem) (FIG. 1B). Western Blot images were representative of the three biological replicates. Experiments were repeated at least 2 times. Bands were quantified using ImageJ software. The heatmap of the band intensities was drawn using GEN-E (Broad Institute) conditional formatting. Control DMSO values were set to one (FIG. 1A).
On the technique in general: A western blot detects proteins with antibodies after separation by electrophoresis.

Turning to `O=c1oc2cc(O)ccc2c2ccc(O)cc12` [UA, Urolithin A], under “UA 25 μM alone”, the “ATP5A protein level, change vs DMSO control” value is “no change”. Besides, where the note is “UA 25 μM alone, increase”, the “MT-CO1 protein level, change vs DMSO control” value is “+14%”; the “SDHA protein level, change vs DMSO control” value was “+54%”; the “SDHB protein level, change vs DMSO control” value is “+10%”; the “UQCRC2 protein level, change vs DMSO control” value is recorded as “+26%”.
In the case of Nicotinamide riboside [NR], the “ATP5A protein level, change vs DMSO control” value (NR 0.1 mM) is reported as “no effect”. In addition, the “SDHB protein level, change vs DMSO control” value is reported as “no change” (NR 0.1 mM) and “no change” (NR 1 mM). For the same compound, the “MT-CO1 protein level, change vs DMSO control” value by setting is: (NR 0.1 mM, decrease (printed −≈10%)) “≈ 10%”; (NR 1 mM, decrease (printed −≈10%)) “≈ 10%”. Besides, the “SDHA protein level, change vs DMSO control” value runs as follows: (NR 0.1 mM, increase) “≈ 100%”; (NR 1 mM, increase) “≈ 100%”. The “UQCRC2 protein level, change vs DMSO control” value was “≈ 10%” (NR 0.1 mM, increase (+≈)) and “≈ 10%” (NR 1 mM, increase (+≈)). The “ATP5A protein level, decrease vs DMSO control” value (NR 1 mM, decrease) is recorded as 20%.
